Assay results from article PMC11178805, “Ligand-based design of [^18F]OXD-2314 for PET imaging in non-Alzheimer’s disease tauopathies” (Nature Communications, 2024).
Where two headings read alike, the source gives them in different places.

Columns and labels:
[1] = target: T1, 4R-tau aggregates in PSP tissue (Homo sapiens, UniProt P10636); assay: Competition binding vs [^3H]OXD-2115 in PSP tissue homogenates; settings: vs [^3H]OXD-2115, PSP tissue homogenates, n = 1
T1 construct: tissue Neurodegenerative Disease Brain Bank at UCSF
T1 sequence (P10636 1-441 isoform P10636-8): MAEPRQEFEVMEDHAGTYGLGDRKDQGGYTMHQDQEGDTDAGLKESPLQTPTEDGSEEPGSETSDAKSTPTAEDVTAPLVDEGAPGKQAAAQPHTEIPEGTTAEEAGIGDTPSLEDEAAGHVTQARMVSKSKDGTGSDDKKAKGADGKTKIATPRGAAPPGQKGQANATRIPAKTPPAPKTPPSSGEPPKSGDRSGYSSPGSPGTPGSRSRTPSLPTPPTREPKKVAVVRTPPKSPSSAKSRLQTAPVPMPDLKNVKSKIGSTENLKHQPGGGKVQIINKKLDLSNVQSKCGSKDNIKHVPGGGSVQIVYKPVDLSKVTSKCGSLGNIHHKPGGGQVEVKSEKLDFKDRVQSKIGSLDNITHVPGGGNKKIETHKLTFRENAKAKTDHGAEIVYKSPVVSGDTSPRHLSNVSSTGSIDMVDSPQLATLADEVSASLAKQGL
Method: (§1) Fresh frozen, autopsy-confirmed human PD anterior cingulate cortex brain tissue blocks (1 cm^3) were obtained from Dr. Thomas Beach at Banner/Sun Health AZ with funding from the Michael J. Fox Foundation and contained frequent α-synuclein aggregates and no other detectable aggregated amyloid species. The frozen tissue blocks were prepared for the binding assays as previously described[47],[48], except that equal quantities of the homogenates of three AD brains (AD1-AD3, Table S1) were pooled, as were homogenates from three PSP brains (PSP1-PSP3), three CBD brains (CBD1-CBD3), three Pick’s brains (PiD1-PiD3), and 4 PD brains (PD1-PD4) in order to help minimize the inter-subject variability within the different neuropathological groups. Individual subcortical brain tissues from a PSP subject (PSP4) and a CBD subject (CBD4), as well as with the middle frontal cortex of a control subject, were prepared for the binding assays as previously described[47],[48].
(§2) The equilibrium inhibition constant (Ki) values of the unlabeled compounds were determined versus tritium-labeled radioligands using published methods.

[2] = target: T2, 3R/4R-tau aggregates in AD tissue (Homo sapiens, UniProt P10636); assay: Competition binding vs [^3H]OXD-2115 in AD tissue homogenates; settings: vs [^3H]OXD-2115, AD tissue homogenates, n = 1
Method: as §1, §2
Target sequence in this assay (P10636 623-695 limits assumed): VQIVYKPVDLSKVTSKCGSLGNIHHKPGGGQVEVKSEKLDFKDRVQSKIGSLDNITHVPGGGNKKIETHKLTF

[3] = target: T1, 4R-tau aggregates in PSP tissue; assay: Competition binding vs [^3H]OXD-2314 in PSP tissue
Method: as §1, §2

[4] = target: T3, 4R-tau aggregates in CBD tissue (Homo sapiens, UniProt P10636); assay: Competition binding vs [^3H]OXD-2314 in CBD tissue
T3 construct: tissue Neurodegenerative Disease Brain Bank at UCSF; host or cells: human CBD brain, middle frontal gyrus (pool of three) or putamen (one subject)
T3 sequence (P10636 1-441 isoform P10636-8): as the sequence (P10636 1-441 isoform P10636-8) above
Method: as §1, §2

[5] = target: T2, 3R/4R-tau aggregates in AD tissue; assay: Competition binding vs [^3H]OXD-2314 in AD tissue
Method: as §1, §2
Target sequence in this assay (P10636 623-758 limits assumed): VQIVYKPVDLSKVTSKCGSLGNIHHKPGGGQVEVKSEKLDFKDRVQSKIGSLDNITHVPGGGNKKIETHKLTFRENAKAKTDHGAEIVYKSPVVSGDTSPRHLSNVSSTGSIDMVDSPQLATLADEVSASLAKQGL

[6] = Baseline PET-CT imaging of [18F]OXD-2188 and [18F]OXD-2189 in rats; format: in vivo, rat; settings: normal rats, n = 2
Method: In vitro characterization, radiosynthesis and rat PET imaging of [ 18F ]O X D -2188 and […]
In vitro characterization. Ki values for OXD-21188 and OXD-2189 vs. [3H]OXD- 2115 in PSP tissue was 29.8 nM and 13.7nM respectively.
Radiochemistry. [18F]OXD- 2188 and [18F]OXD- 2189 were radiolabeled using the same […]
radiochemical purity above 95%, molar activity of 60.1 and 58.4 GBq/μmol, respectively, and radiochemical yield of 9% (not decay- co rrected).
PET imaging. Three adul t rats (two females and o ne male) w ere used in b aseline PET imaging of [18F]OXD- 2188 and [18F]OXD- 2189 (16- 23 MBq injected, with the m ale rat being scanned twice on two consecutive d ays). […]
for both [18F]OXD- 2188 (n=2) and [18F]OXD- 2189 (n=2) with rapid clearance of radioactivity from the brain (Figure S1).
Figure S1. Structures of OXD-2188 and OXD-2189, time-activity curves and representative PET summation images […]

[7] = target: T4, 3R-tau aggregates in PiD tissue (Homo sapiens, UniProt P10636); assay: Competition binding vs [^3H]OXD-2314 in PiD tissue
T4 construct: tissue Neurodegenerative Disease Brain Bank at UCSF; host or cells: human PiD brain, middle frontal gyrus, pooled homogenate of three brains
T4 sequence (P10636 1-410 isoform P10636-5): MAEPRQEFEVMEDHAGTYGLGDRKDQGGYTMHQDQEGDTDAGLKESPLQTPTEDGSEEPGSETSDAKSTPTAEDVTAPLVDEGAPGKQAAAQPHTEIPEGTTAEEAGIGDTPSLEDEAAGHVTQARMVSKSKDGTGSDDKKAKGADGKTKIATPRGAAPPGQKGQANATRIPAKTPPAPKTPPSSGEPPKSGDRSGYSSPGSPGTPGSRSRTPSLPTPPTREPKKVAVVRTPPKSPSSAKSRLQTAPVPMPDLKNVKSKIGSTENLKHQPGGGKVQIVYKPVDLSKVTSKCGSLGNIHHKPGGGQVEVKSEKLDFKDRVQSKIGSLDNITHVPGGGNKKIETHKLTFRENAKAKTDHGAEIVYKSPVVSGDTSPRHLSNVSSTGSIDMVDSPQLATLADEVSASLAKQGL
Method: as §1, §2

[8] = Mouse pharmacology (DMPK): plasma and brain concentrations, brain-to-plasma ratios after i.v. administration; format: in vivo, mice; settings: mouse, brain, iv, mice, i.v., AUC brain:plasma
Method: Ex vivo evaluation of the BBB permeability of OXD-2314 was performed by measuring the brain-to-plasma ratios in mice. Compound concentrations in plasma (0.03 h, 0.17 h, 0.5 h, 1 h, and 2 h; n = 3 per timepoint) were compared with concentrations in brain (0.03 h, 0.17 h, 1 h, and 2 h; n = 3 per timepoint) for both OXD-2115 and OXD-2314. The total brain-to-plasma concentration ratios were 1.7 for OXD-2314 and 0.1 for OXD-2115. The free concentration ratio for brain-to-plasma was 0.6 for OXD-2314 and 0.002 for OXD-2115 (Figs. S3–S8 and Tables S2, S3).

Oc1ccc2[nH]c(-c3ccc(N4CCC[C@@H](O)C4)nc3F)cc2c1 [OXD-2188]
Ki [1]: 29.8 nM

Oc1ccc2[nH]c(-c3ccc(N4CCCC(F)C4)nc3F)cc2c1 (stereo not drawn) [OXD-2312]
Ki [1]: 5.1 nM
Ki [2]: 12 nM

C#CCN(C)C(C)Cc1ccccc1 (stereo not drawn) [Deprenyl]
Ki ([3]; vs [^3H]OXD-2314, PSP tissue): 3000 nM
Ki ([4]; vs [^3H]OXD-2314, CBD tissue): 5000 nM
Ki ([5]; vs [^3H]OXD-2314, AD tissue): 2900 nM

Oc1ccc2[nH]c(-c3ccc(N4CCC[C@@H](O)C4)nc3[18F])cc2c1 [[18F]OXD-2188]
initial brain uptake [6]: ~ 1.0 SUV

Oc1ccc2[nH]c(-c3ccc(N4CCC[C@H](O)C4)nc3F)cc2c1 [OXD-2189]
Ki [1]: 13.7 nM

Oc1ccc2[nH]c(-c3ccc(F)nc3N3CCCC(F)C3)cc2c1 (stereo not drawn) [OXD-2313]
Ki [1]: 4.8 nM
Ki [2]: 11 nM

CO[C@H]1CCCN(c2ncc(-c3cc4cc(O)ccc4[nH]3)c(F)n2)C1 [OXD-2331]
Ki [1]: 6.3 nM
Ki [2]: 7.4 nM

Nc1c(F)ccc2cnc(-n3ccc4ccncc43)cc12 [MK-6240]
Ki [3]: 5600 nM
Ki [4]: 1700 nM
Ki [5]: 1900 nM
Ki [7]: 1000 nM

Oc1ccc2[nH]c(-c3ccc(N4CCC(O)CC4)nc3F)cc2c1 [OXD-2310]
Ki [1]: 6.6 nM
Ki [2]: 21 nM

NCCNC(=O)c1ncsc1-c1cccc(F)c1 [Ro41-1049]
Ki ([3]; vs [^3H]OXD-2314, PSP tissue): > 10000 nM
Ki ([4]; vs [^3H]OXD-2314, CBD tissue): > 10000 nM
Ki ([5]; vs [^3H]OXD-2314, AD tissue): > 10000 nM

Fc1ccc(-c2ccc3c(c2)[nH]c2ccncc23)cn1 [Tauvid]
Ki [3]: > 10000 nM
Ki [4]: > 10000 nM
Ki [5]: > 10000 nM
Ki [7]: 4400 nM

Oc1ccc2[nH]c(-c3ccc(N4CCC[C@H](O)C4)nc3[18F])cc2c1 [[18F]OXD-2189]
initial brain uptake [6]: ~ 1.0 SUV

OCC1CCN(c2ccc(-c3cc4cc(O)ccc4[nH]3)c(F)n2)CC1 [OXD-2115]
Ki [3]: 27 nM
Kp,uu (unbound brain-to-plasma ratio) ([8]; FREE, read-out: free concentration ratio brain-to-plasma): 0.002
Kp ([8]; TOTAL, read-out: total brain-to-plasma concentration ratio): 0.1
Ki [1]: 27 nM
Ki [4]: 30 nM
Ki [5]: 14 nM
Ki [7]: 23 nM
Ki [2]: 20 nM

Oc1ccc2[nH]c(-c3ccc(N4CCC(F)CC4)nc3F)cc2c1 [OXD-2317]
Ki [1]: 5.8 nM
Ki [2]: 5.4 nM
